In patent US7812016B2, “Naphthyridine integrase inhibitors” (SmithKline Beecham Corporation, priority 2003, dated 2010) one finds IC50 data, which are given here for one compound.

The test system of this test is HIV-1 (strain IIIB). In words: MT4 Cell Assay (antiviral HIV activity, propidium iodide or MTS readout). Type of test: cell-based. Conditions: Human immunodeficiency virus 1, IIIB, expected range for the control and standard, tested in every assay, MT4 cells. The protocol: Antiviral HIV activity and compound-induced cytotoxicity were measured in parallel by means of a propidium iodide based procedure in the human T-cell lymphotropic virus transformed cell line MT4. Aliquots of the test compounds were serially diluted in medium (RPMI 1640, 10% fetal calf serum (FCS), and gentamycin) in 96-well plates (Costar 3598) using a Cetus Pro/Pette. Exponentially growing MT4 cells were harvested and centrifuged at 1000 rpm for 10 min in a Jouan centrifuge (model CR 4 12). Cell pellets were resuspended in fresh medium (RPMI 1640, 20% FCS, 20% IL-2, and gentamycin) to a density of 5×10^5 cells/ml. Cell aliquots were infected by the addition of HIV-1 (strain IIIB) diluted to give a viral multiplicity of infection of 100× TCID50. […]
A. For propidium iodide readout, 27 μl of 5% Nonidet40 was added to each well of the incubation plate. […] The plates were analyzed in an automated assay instrument (Screen Machine, Idexx Laboratories). […]
B. For MTS readout, 20 μl CellTiter 96 AQ One Solution reagent (Promega #G3582) was added to each well. At 75 minutes following the addition of MTS reagent, absobance was read at 492 nm using a Tecan Sunrise 96-well plate reader. […]
For each assay plate, the results (relative fluorescence units, rfU, or OD values) of wells containing uninfected cells or infected cells with no compound were averaged, respectively. […]

Each structure is given as a SMILES string.

The term IC50 denotes the concentration at which inhibition is half-maximal. The low end stands for higher potency, the high end for lower potency.

Turning to `Cc1cn([C@H]2C[C@H](N=[N+]=[N-])[C@@H](CO)O2)c(=O)[nH]c1=O` [3′-azido-3′-deoxythymidine], the IC50 fell in the range of 40 to 120 nM.
